In patent publication US20050256073A1, “Immunostimulatory viral RNA oligonucleotides” (Coley Pharmaceutical Group, Inc., priority 2004, published 2005):
Where “and” joins values, the source holds several entries; their conditions need not be identical. Identical values can stand only once. Like-named read-outs stand apart in the source and are kept apart here.

Columns and labels:
Type in all cases: cell-based
human PBMC [1] = conditions: for EC50: read-out: TNF production EC50
human PBMC [2] = conditions: for EC50: read-out: IFN-γ production EC50
human PBMC [3] = conditions: for EC50: read-out: IFN-α production EC50
human CD14+ cells = assay: CD80 expression on human CD14+ cells (FACS)
human PBMC [4] = system: human PBMC
[5] = system: human CD19+ cells (B cells); assay: CD80 expression on human CD19+ cells (FACS)
human TLR8 = molecular target: T1, human TLR8 (Homo sapiens, UniProt Q9NR97); assay: NF-κB-luciferase readout in HEK293 cells stably transfected with human TLR8
T1 construct: expressed in transfected cells; host or cells: HEK293 cells, stably transfected, with NF-κB-luciferase reporter construct
T1 sequence (Q9NR97 27-1041): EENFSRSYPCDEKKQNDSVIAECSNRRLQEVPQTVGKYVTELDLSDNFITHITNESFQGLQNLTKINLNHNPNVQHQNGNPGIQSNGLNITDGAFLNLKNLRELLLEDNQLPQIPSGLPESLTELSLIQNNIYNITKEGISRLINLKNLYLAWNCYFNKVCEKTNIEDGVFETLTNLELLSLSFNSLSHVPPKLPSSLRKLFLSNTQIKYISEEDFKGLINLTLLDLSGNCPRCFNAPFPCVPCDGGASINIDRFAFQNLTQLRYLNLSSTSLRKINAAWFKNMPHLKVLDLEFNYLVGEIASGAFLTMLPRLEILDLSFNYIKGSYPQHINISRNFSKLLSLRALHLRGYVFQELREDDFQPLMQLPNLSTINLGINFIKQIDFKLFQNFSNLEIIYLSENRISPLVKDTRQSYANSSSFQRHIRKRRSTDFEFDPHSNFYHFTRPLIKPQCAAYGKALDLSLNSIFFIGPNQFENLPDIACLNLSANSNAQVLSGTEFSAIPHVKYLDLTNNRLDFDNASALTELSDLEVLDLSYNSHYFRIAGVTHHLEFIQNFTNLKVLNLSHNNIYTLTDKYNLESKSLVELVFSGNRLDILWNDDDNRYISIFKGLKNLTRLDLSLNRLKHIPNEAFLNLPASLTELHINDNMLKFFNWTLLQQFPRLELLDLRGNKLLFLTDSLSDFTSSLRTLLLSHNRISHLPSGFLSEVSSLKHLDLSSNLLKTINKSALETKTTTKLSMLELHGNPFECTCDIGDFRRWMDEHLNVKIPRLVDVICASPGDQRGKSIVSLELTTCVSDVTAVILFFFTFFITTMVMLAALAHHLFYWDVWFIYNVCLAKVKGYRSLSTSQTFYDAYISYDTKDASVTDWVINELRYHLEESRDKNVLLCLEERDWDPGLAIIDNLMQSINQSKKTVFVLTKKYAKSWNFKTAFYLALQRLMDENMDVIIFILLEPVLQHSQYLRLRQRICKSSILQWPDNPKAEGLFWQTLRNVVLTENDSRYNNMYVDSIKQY
Description: (§1) Emitted light varied in direct proportion to NF-κB activation.
(§2) The effect of immunostimulatory oligonucleotide was assessed by titrating the amount or concentration of oligonucleotide concentration in a given experiment. The effect of immunostimulatory oligonucleotide concentration was expressed in terms of EC50 (concentration at which immunostimulatory oligonucleotide was 50 percent effective compared to maximum effect). The potency of a given immunostimulatory oligonucleotide was expressed as maximum stimulation index (SI max; the maximum fold increase in signal over that of untreated control) or maximum activity.
(§3) Stimulation and measurement of signal transduction in HEK293 cells stably transfected with either human TLR8 or human TLR9 and an NF-κB-luciferase reporter construct was performed essentially as described in Example 1. […] Results are expressed in terms of EC50 in μM and stimulation index (SI)=fold induction of NF-κB-luciferase activity in ligand-pulsed cells.

human TLR9 = molecular target: T2, human TLR9 (Homo sapiens, UniProt Q9NR96); assay: NF-κB-luciferase readout in HEK293 cells stably transfected with human TLR9
T2 construct: expressed in transfected cells; host or cells: HEK293 cells, stably transfected, with NF-κB-luciferase reporter construct
T2 sequence (Q9NR96 26-1032): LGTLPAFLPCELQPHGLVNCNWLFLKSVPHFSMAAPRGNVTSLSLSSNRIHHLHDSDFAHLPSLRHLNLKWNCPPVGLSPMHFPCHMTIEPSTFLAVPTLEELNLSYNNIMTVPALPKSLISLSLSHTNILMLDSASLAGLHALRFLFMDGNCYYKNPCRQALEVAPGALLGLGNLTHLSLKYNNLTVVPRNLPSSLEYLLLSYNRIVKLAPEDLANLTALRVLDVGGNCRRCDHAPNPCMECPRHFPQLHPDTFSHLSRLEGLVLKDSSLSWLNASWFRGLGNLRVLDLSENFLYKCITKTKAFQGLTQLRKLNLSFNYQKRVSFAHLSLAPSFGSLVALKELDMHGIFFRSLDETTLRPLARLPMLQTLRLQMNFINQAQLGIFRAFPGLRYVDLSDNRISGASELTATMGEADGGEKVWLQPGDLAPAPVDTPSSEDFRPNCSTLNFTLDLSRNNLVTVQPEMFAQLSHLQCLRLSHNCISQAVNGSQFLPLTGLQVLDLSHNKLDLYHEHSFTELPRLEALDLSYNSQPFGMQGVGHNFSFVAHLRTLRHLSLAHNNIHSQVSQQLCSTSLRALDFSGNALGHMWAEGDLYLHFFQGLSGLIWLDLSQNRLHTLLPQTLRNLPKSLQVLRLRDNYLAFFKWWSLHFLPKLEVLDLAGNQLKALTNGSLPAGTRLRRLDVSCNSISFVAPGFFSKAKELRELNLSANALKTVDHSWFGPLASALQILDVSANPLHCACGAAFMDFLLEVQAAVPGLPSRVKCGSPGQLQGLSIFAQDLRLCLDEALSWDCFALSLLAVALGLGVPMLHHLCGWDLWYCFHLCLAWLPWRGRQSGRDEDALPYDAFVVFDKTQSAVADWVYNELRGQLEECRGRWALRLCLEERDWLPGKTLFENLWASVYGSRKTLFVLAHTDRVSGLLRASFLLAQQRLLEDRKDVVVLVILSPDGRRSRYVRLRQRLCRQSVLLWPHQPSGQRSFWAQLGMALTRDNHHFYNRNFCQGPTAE
Description: as §1, §2, §3

Substance	TNF production max activity (human PBMC [1])	EC50 (human PBMC [1])	IFN-γ production max activity (human PBMC [2])	IFN-α production max activity (human PBMC [3])	EC50 (human PBMC [3])	other results
AAUGGUUUGUUUGUCUUCGU [ORN 7]	7500 pg/mL and 10000 pg/mL and 7000 pg/mL and 8000 pg/mL and 5000 pg/mL	357 nM and 325 nM and 544 nM and 468 nM and 424 nM	50000 pg/mL and 80000 pg/mL and 65000 pg/mL			EC50 (human PBMC [2]): 490 nM and 642 nM and 566 nM
AGCGAAAGCAGGUCAAUUAU [ORN 5, reference compound]	0 pg/mL		0 pg/mL	0 pg/mL		
AUAAUUGACCUGCUUUCGCU [ORN 4]	5750 pg/mL and 8000 pg/mL and 5000 pg/mL	412 nM and 400 nM and 559 nM and 512 nM and 471 nM				induction of co-stimulatory molecule CD80 on CD14+ cells (human CD14+ cells): induce; EC50 (human PBMC [2]): 637 nM and 490 nM and 564 nM; profile of immunostimulation (cytokines induced) (human PBMC [4]): very broad, including induction of TNF-α, IL-6, IL-12 p40, IFN-α, and IFN-γ; induction of co-stimulatory molecule CD80 on CD19+ cells (B cells) [5]: induce
CUUACCCAACUUUGUUUGGU [ORN 2]	9500 pg/mL and 8000 pg/mL and 13000 pg/mL and 10000 pg/mL and 7000 pg/mL		50000 pg/mL and 40000 pg/mL and 45000 pg/mL		34 nM and 68 nM and 60 nM and 38 nM and 50 nM	EC50 (human PBMC [2]): 514 nM and 529 nM and 522 nM
GCCACCGAGCCGAAGGCAAC [ORN 21, reference compound]	0 pg/mL			0 pg/mL		immunostimulatory activity (in words) (human PBMC [4]): no immunostimulatory activity
GCCACCGAGCCGAUUGUACC [ORN 22]	23833 pg/mL	244 nM		2417 pg/mL	1110 nM	
GCCACCGAGCCGAUUUUACC [ORN 23]	25500 pg/mL	228 nM		2333 pg/mL	41 nM	
GGGGAUGAUGTUGTGGGGGGG [ORN 20]	0 pg/mL			0 pg/mL		
GGGGAUGAUGUUGUGGGGGGG [ORN 19]	37667 pg/mL	415 nM		2867 pg/mL	129 nM	
TCGTCGTTTTCGGCGCGCGCCG [CpG ODN 2395, reference compound]						induction of co-stimulatory molecule CD80 on CD19+ cells (B cells) [5]: induce
TUGTUGTTTTGTUGTTTTGTUGTT [ORN 16]	56667 pg/mL	234 nM		2267 pg/mL	1100 nM	
TUGTUGTTTTUGGUGGUUGUUG [ORN 18]	61667 pg/mL	200 nM		2617 pg/mL	79.5 nM	
UCGUCGUUUUGUCGUUUUGUCGUU [ORN 14]	53833 pg/mL	78 nM		2783 pg/mL	37.3 nM	
UGUUUUUUCUCUUGUUUGGU [ORN 3]		419 nM and 421 nM and 470 nM and 337 nM and 412 nM	60000 pg/mL and 70000 pg/mL and 65000 pg/mL			induction of co-stimulatory molecule CD80 on CD14+ cells (human CD14+ cells): induce; EC50 (human PBMC [2]): 528 nM and 606 nM and 567 nM; induction of co-stimulatory molecule CD80 on CD19+ cells (B cells) [5]: induce
UUGAUCUGGUUGUUAAGCGU [ORN 6]	8750 pg/mL and 10000 pg/mL and 7000 pg/mL and 8000 pg/mL	462 nM and 409 nM and 604 nM and 498 nM and 493 nM	60000 pg/mL and 30000 pg/mL and 45000 pg/mL			EC50 (human PBMC [2]): 635 nM and 586 nM and 611 nM
UUGUACGCAUUUUUUCGCGU [ORN 1]	8500 pg/mL and 8000 pg/mL and 10000 pg/mL	494 nM and 417 nM and 473 nM and 529 nM and 478 nM	50000 pg/mL and 60000 pg/mL and 55000 pg/mL			EC50 (human PBMC [2]): 592 nM and 517 nM and 555 nM
UUGUUGUUUUGUUGUUUUGUUGUU [ORN 15]	60000 pg/mL	40 nM		2500 pg/mL	5 nM	
UUGUUGUUUUUGGUGGUUGUUG [ORN 17]	70000 pg/mL	57.5 nM		3000 pg/mL	15.2 nM	
dNdNdNdNdNdNUUGUGdNdNdNdNdNdNdN [ORN 31]	18000 pg/mL	4890 nM		766.7 pg/mL	3870 nM	
dNdNdNdNdNdNUUGUdNdNdNdNdNdNdNdN [ORN 32]	30000 pg/mL	7980 nM		666.7 pg/mL	4560 nM	
dNdNdNdNdNdNUUGdNdNdNdNdNdNdNdNdN [ORN 33]	0 pg/mL			0 pg/mL		
dNdNdNdNdNdNdNUGdNdNdNdNdNdNdNdNdN [ORN 34]	0 pg/mL			0 pg/mL		
dTdCdGdTdCdGdTdTdT 2′-5′ (GUUGUGU) dAdAdT [ORN 13]	0 pg/mL		0 pg/mL		15 nM and 25 nM	TLR8 stimulation (in words) (human TLR8): lost; TLR9 stimulation (in words) (human TLR9): maintained; EC50 (human TLR9; Table 11, HEK293, NF-κB-luciferase): 110 nM
